The source of these data is ChEMBL document CHEMBL4673302, “Efficient synthesis and antitumor evaluation of 4-aminomethyl-N-arylpyrazoles: Discovery of potent and selective agents for ovarian cancer” (Bioorg Med Chem, 2021).

As usually defined, the GI50 is the concentration that inhibits growth by half.

Series [1] deals with U-251. Description: Anticancer activity against human U-251 cells assessed as cell growth inhibition measured after 48 hrs by sulforhodamine B assay. Format: functional.
The subject of series [2] is MCF7. Description: Anticancer activity against human MCF7 cells assessed as cell growth inhibition measured after 48 hrs by sulforhodamine B assay. It counts as functional. For orientation: In SRB staining, fixed cells bind dye roughly in proportion to their protein.
Series [3] has as its system 786-0. In words: Anticancer activity against human 786-0 cells assessed as cell growth inhibition measured after 48 hrs by sulforhodamine B assay. Format: functional.
The subject of series [4] is NCI-H460. Description: Anticancer activity against human NCI-H460 cells assessed as cell growth inhibition measured after 48 hrs by sulforhodamine B assay. It counts as functional.
The subject of series [5] is PC-3. Description: Anticancer activity against human PC-3 cells assessed as cell growth inhibition measured after 48 hrs by sulforhodamine B assay. Format: functional.
Series [6] deals with OVCAR-3. Description: Anticancer activity against human OVCAR-3 cells assessed as cell growth inhibition measured after 48 hrs by sulforhodamine B assay. Format: functional.
The test system of series [7] is HT-29. Description: Anticancer activity against human HT-29 cells assessed as cell growth inhibition measured after 48 hrs by sulforhodamine B assay. It counts as functional.
Series [8] deals with K562. In words: Anticancer activity against human K562 cells assessed as cell growth inhibition measured after 48 hrs by sulforhodamine B assay. It counts as functional.
Series [9] has as its system HaCaT. Description: (§1) Cytotoxicity against human HaCaT cells assessed as cell growth inhibition measured after 48 hrs by sulforhodamine B assay. It counts as cell-based. The conditions noted are these: hacat, 48 h.
Series [10] in a line: as §1. It counts as cell-based. The conditions noted are these: HaCaT cells.

Consider `CCOC(=O)c1nn(-c2ccc(Cl)cc2)c(-c2ccc([N+](=O)[O-])cc2)c1CNC(C)(C)C` [listing 1 of 2 here], for which the GI50 in [1] (48 h) was found to be 340 µM; in series [2] (48 h) it was 205 µM; in series [3] (48 h), 51.2 µM; in series [4] (48 h), 52.8 µM; in series [5] (48 h), 304 µM; in series [6] (48 h), 16.1 µM. The GI50 came to 40.8 µM in [7] (48 h), 14.8 µM in series [8] (48 h) and 145 µM in series [9].
For the compound `CCOC(=O)c1nn(-c2ccc(Cl)cc2)c(-c2ccccc2)c1CNC(C)(C)C`, the GI50 in series [1] (Homo sapiens, U-251, 48 h) is greater than 608 µM; in series [2] (Homo sapiens, MCF7, 48 h) it was greater than 608 µM; in series [3] (Homo sapiens, 786-0, 48 h) it was greater than 608 µM; in [4] (Homo sapiens, NCI-H460, 48 h), greater than 608 µM; in series [5] (Homo sapiens, PC-3, 48 h), greater than 608 µM; in series [6] (Homo sapiens, OVCAR-3, 48 h), greater than 608 µM. Further, the GI50 came to 336 µM in series [7] (Homo sapiens, HT-29, 48 h) and 64.5 µM in series [8] (48 h). The GI50 at 48 h in series [10] was greater than 608 µM.
As to `CCOC(=O)c1nn(-c2ccc(Cl)cc2)c(-c2ccc(Br)cc2)c1CNC(C)(C)C`, the concentration for 50% growth inhibition (GI50) in series [1] (Homo sapiens, U-251, 48 h) was greater than 511 µM; in [2] (Homo sapiens, MCF7, 48 h), greater than 511 µM; in series [3] (Homo sapiens, 786-0, 48 h), greater than 511 µM; in series [4] (Homo sapiens, NCI-H460, 48 h), greater than 511 µM; in [5] (Homo sapiens, PC-3, 48 h) it was greater than 511 µM; in [6] (Homo sapiens, OVCAR-3, 48 h), greater than 511 µM. Also, the 50% growth inhibitory concentration (GI50) in series [7] (Homo sapiens, HT-29, 48 h) is greater than 511 µM; in [8] (Homo sapiens, K562, 48 h), greater than 511 µM. The GI50 at 48 h in series [10] was greater than 511 µM.
On to `COc1ccc(-c2c(CNC(C)(C)C)c(C(=O)O)nn2-c2ccccc2)cc1`, for which the GI50 was greater than 659 µM in series [1] (Homo sapiens, U-251, 48 h); greater than 659 µM in [2] (Homo sapiens, MCF7, 48 h); greater than 659 µM in series [3] (Homo sapiens, 786-0, 48 h); greater than 659 µM in series [4] (Homo sapiens, NCI-H460, 48 h); greater than 659 µM in series [5] (Homo sapiens, PC-3, 48 h); greater than 659 µM in [6] (Homo sapiens, OVCAR-3, 48 h). Also, the GI50 in series [7] (Homo sapiens, HT-29, 48 h) is greater than 659 µM; in series [8] (Homo sapiens, K562, 48 h), greater than 659 µM. Also, the GI50 at 48 h in [10] was greater than 659 µM.
As to `CCOC(=O)c1nn(-c2ccc(Cl)cc2)c(-c2ccc(OC)cc2)c1CNC(C)(C)C`, the GI50 in series [1] (48 h), in series [2] (48 h), in series [3] (48 h), in [4] (48 h), in [5] (48 h) and in [6] (48 h) was greater than 524 µM throughout. Further, the GI50 in series [7] (48 h), in series [8] (48 h) and in series [9] was greater than 524 µM in each case.
On to `CCOC(=O)c1nn(-c2ccc(Cl)cc2)c(-c2ccc(C)cc2)c1CNC(C)(C)C`, for which the GI50 in series [1] (48 h), in series [2] (48 h), in series [3] (48 h), in [4] (48 h), in [5] (48 h) and in series [6] (48 h) was greater than 542 µM each time. In addition, the GI50 in series [7] (48 h), in series [8] (48 h) and in [9] was greater than 542 µM each time.
In the case of `CCOC(=O)c1nn(-c2ccc(Cl)cc2)c(-c2ccc([N+](=O)[O-])cc2)c1CNC(C)(C)C` [listing 2 of 2 here], the GI50 in [1] (Homo sapiens, U-251, 48 h) was greater than 548 µM; in series [2] (48 h), greater than 548 µM; in [3] (48 h) it was 316 µM; in series [4] (48 h), greater than 548 µM; in series [5] (Homo sapiens, PC-3, 48 h), greater than 548 µM; in series [6] (48 h), 206 µM. Also, the GI50 in series [7] (Homo sapiens, HT-29, 48 h) was 42.3 µM; in series [8] (48 h), 181 µM; in series [9], 10.3 µM.
As for `Cc1ccc(-c2c(CNC(C)(C)C)c(C(=O)O)nn2-c2ccccc2)cc1`, the GI50 in series [1] (Homo sapiens, U-251, 48 h) was greater than 688 µM; in series [2] (Homo sapiens, MCF7, 48 h) it was greater than 688 µM; in series [3] (Homo sapiens, 786-0, 48 h), greater than 688 µM; in [4] (Homo sapiens, NCI-H460, 48 h) it was greater than 688 µM; in series [5] (Homo sapiens, PC-3, 48 h), greater than 688 µM; in series [6] (Homo sapiens, OVCAR-3, 48 h), 283 µM. For the same compound, the GI50 in series [7] (Homo sapiens, HT-29, 48 h) was greater than 688 µM; in series [8] (Homo sapiens, K562, 48 h), greater than 688 µM. In addition, the GI50 at 48 h in series [10] was greater than 688 µM.
Turning to `CC(C)(C)NCc1c(C(=O)O)nn(-c2ccccc2)c1-c1ccc([N+](=O)[O-])cc1`, the GI50 in [1] (Homo sapiens, U-251, 48 h) was greater than 634 µM; in series [2] (Homo sapiens, MCF7, 48 h), greater than 634 µM; in series [3] (Homo sapiens, 786-0, 48 h), greater than 634 µM; in series [4] (Homo sapiens, NCI-H460, 48 h), greater than 634 µM; in series [5] (Homo sapiens, PC-3, 48 h), greater than 634 µM; in [6] (Homo sapiens, OVCAR-3, 48 h) it was greater than 634 µM. Further, the GI50 in series [7] (Homo sapiens, HT-29, 48 h) is greater than 634 µM; in series [8] (Homo sapiens, K562, 48 h) it was greater than 634 µM. Moreover, the GI50 at 48 h in series [10] was greater than 634 µM.
`CC(C)(C)NCc1c(C(=O)O)nn(-c2ccc(Cl)cc2)c1-c1ccc(Cl)cc1`: the GI50 in series [1] (Homo sapiens, U-251, 48 h) is 518 µM; in series [2] (Homo sapiens, MCF7, 48 h), 246 µM; in series [3] (Homo sapiens, 786-0, 48 h), greater than 599 µM; in series [4] (Homo sapiens, NCI-H460, 48 h) it was greater than 599 µM; in series [5] (Homo sapiens, PC-3, 48 h), greater than 599 µM; in series [6] (Homo sapiens, OVCAR-3, 48 h), 84.9 µM. In addition, the concentration for 50% growth inhibition (GI50) in [7] (Homo sapiens, HT-29, 48 h) is greater than 599 µM; in series [8] (Homo sapiens, K562, 48 h), 290 µM. Further, the GI50 at 48 h in series [10] was found to be 87.5 µM.
Regarding `CC(C)(C)NCc1c(C(=O)O)nn(-c2ccccc2)c1-c1ccccc1`, the GI50 in series [1] (Homo sapiens, U-251, 48 h) is greater than 716 µM; in series [2] (Homo sapiens, MCF7, 48 h), greater than 716 µM; in series [3] (Homo sapiens, 786-0, 48 h), greater than 716 µM; in series [4] (Homo sapiens, NCI-H460, 48 h), greater than 716 µM; in series [5] (Homo sapiens, PC-3, 48 h), greater than 716 µM; in [6] (Homo sapiens, OVCAR-3, 48 h), greater than 716 µM. For the same compound, the GI50 was greater than 716 µM in series [7] (Homo sapiens, HT-29, 48 h) and greater than 716 µM in series [8] (Homo sapiens, K562, 48 h). Also, the GI50 at 48 h in [10] was greater than 716 µM.
